{
  "source": "ChEMBL document CHEMBL1201862",
  "about": "“PubChem BioAssay data set” (2004)",
  "key": {"[1]": {"biological_target": "G-protein coupled receptor 55 (Homo sapiens, UniProt Q9Y2T6)", "sequence (Q9Y2T6 whole entry)": "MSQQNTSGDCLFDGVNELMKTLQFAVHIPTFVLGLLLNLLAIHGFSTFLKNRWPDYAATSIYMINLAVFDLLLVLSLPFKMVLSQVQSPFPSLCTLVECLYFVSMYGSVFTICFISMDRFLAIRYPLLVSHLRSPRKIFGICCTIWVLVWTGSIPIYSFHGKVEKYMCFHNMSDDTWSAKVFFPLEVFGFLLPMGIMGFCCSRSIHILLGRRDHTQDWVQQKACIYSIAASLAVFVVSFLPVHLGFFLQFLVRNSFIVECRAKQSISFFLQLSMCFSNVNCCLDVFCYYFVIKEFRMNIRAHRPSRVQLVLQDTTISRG", "assay": "inhibition of LPI-stimulated GPR55 beta-arrestin translocation – imaging, U2OS, beta-arrestin-GFP, LPI agonist, primary screen (AID 2013);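 further: antagonist potency measured as reduced agonist-driven arrestin aggregation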", "assay_type": "functional"}, "[2]": {"biological_target": "Photoreceptor-specific nuclear receptor (Homo sapiens, UniProt Q9Y5X4)", "sequence (Q9Y5X4 whole entry)": "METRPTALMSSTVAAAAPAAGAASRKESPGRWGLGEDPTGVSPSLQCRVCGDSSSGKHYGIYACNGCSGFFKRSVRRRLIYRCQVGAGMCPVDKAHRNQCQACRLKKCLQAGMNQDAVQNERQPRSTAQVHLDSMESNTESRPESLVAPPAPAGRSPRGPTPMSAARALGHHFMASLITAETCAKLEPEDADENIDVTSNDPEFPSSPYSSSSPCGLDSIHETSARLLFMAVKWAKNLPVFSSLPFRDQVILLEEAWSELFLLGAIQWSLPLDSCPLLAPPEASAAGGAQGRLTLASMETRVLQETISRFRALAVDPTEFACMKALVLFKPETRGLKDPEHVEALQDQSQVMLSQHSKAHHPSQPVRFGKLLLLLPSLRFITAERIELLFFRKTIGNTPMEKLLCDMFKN", "assay_type": "functional"}, "[3]": {"assay": "viability of uninfected HEp-2 cells – cell-based, HTS, cytotoxicity control for RSV inhibitor project, dose response (AID 2410)", "assay_type": "functional", "conditions": "human respiratory syncytial virus"}, "[4]": {"assay": "cells"}, "[5]": {"biological_target": "Peroxisome proliferator-activated receptor gamma/Nuclear receptor corepressor 2 (Homo sapiens, UniProt P37231+Q9Y618)", "sequence (P37231 whole entry)": "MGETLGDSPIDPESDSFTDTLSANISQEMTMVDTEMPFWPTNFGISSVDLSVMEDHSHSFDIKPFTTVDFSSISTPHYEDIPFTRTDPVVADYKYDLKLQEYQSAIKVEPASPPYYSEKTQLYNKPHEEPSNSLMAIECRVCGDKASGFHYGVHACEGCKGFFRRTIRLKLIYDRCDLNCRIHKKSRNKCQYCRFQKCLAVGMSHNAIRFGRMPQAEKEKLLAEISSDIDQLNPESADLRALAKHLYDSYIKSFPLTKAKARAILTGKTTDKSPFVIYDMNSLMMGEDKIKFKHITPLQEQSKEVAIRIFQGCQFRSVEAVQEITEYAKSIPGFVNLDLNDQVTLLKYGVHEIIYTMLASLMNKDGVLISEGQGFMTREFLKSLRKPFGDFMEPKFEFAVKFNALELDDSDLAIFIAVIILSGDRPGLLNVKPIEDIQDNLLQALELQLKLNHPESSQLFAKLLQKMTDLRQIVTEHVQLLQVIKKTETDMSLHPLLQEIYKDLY", "sequence (Q9Y618 whole entry)": "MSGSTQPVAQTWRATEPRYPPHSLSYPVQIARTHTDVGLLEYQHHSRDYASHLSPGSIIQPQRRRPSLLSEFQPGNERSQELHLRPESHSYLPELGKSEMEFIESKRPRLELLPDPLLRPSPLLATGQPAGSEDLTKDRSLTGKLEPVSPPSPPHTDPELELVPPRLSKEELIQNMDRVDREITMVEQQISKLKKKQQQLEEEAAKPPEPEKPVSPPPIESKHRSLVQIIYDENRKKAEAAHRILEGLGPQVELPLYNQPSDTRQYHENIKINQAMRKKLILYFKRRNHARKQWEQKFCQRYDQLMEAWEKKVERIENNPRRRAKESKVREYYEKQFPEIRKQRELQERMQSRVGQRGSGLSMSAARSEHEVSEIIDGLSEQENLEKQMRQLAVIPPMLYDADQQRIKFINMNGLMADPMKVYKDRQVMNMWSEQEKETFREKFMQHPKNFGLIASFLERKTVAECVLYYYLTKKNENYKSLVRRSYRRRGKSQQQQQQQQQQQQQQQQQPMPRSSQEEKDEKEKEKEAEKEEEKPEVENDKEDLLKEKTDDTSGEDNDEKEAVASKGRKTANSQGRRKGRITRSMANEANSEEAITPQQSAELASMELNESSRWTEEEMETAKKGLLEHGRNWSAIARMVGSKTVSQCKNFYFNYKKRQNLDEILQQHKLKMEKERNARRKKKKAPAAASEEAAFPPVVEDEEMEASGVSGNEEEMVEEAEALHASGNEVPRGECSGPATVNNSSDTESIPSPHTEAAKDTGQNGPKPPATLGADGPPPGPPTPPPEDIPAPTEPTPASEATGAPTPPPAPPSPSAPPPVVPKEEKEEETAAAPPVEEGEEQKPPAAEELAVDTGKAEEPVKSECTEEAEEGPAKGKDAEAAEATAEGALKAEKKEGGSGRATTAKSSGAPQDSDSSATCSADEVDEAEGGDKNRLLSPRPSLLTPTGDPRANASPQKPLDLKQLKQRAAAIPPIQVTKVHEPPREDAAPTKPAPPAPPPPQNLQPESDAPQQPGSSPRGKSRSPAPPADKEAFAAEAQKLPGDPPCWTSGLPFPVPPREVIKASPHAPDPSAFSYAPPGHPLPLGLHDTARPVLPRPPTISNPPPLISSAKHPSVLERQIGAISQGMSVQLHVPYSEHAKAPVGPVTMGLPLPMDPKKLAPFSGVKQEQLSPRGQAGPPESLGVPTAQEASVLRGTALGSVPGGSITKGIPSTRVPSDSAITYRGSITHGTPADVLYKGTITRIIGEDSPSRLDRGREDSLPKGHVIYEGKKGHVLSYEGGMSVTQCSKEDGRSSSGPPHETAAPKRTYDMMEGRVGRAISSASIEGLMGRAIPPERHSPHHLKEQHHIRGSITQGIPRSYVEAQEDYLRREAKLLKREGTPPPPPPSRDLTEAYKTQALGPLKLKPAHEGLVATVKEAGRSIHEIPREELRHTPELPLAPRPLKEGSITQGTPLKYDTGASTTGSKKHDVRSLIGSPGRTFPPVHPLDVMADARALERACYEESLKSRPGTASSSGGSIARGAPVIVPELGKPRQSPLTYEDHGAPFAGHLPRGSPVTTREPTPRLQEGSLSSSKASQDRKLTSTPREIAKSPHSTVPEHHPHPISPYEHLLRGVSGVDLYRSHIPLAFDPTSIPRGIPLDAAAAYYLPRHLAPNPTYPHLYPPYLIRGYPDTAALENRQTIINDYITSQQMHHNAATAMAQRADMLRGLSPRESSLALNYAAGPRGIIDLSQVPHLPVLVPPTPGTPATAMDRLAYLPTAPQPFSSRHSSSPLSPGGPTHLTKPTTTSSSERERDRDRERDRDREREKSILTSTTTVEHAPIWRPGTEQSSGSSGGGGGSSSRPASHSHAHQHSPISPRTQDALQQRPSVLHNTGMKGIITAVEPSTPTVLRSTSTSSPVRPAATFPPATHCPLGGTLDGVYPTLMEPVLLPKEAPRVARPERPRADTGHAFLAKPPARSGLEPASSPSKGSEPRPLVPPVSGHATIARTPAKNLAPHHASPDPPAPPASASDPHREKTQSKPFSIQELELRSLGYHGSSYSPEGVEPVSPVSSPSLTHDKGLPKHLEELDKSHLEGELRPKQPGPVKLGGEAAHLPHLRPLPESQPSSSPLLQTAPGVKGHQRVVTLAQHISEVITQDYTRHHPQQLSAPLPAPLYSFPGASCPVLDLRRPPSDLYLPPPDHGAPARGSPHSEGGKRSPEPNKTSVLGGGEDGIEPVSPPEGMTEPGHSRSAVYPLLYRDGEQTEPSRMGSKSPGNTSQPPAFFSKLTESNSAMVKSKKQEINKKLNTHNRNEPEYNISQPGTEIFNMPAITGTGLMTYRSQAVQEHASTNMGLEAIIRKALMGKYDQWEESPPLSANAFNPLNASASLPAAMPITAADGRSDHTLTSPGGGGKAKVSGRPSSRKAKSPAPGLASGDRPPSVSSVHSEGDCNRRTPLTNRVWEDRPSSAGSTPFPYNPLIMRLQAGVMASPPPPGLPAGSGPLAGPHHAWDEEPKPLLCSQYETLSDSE", "assay_type": "functional"}, "[6]": {"biological_target": "T1, Alkaline phosphatase, tissue-nonspecific isozyme (Homo sapiens, UniProt P05186)", "T1 sequence (P05186 whole entry)": "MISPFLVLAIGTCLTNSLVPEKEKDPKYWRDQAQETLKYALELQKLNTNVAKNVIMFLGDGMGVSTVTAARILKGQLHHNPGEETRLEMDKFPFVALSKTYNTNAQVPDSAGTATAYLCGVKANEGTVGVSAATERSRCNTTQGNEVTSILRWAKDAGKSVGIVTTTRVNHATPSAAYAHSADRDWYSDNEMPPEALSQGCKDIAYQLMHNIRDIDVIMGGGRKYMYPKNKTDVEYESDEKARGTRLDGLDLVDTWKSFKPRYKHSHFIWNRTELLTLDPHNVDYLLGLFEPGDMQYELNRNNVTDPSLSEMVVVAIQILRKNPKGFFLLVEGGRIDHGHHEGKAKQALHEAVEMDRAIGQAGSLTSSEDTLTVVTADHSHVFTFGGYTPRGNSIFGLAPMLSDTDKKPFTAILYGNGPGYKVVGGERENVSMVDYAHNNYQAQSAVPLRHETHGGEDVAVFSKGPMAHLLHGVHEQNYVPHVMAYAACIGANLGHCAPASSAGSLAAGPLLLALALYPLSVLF", "assay": "activation of tissue-nonspecific alkaline phosphatase – biochemical, TNAP isozyme, human IAP uHTS hits, selectivity assay for human IAP activator project, dose response (AID 488886);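 further: potency of compounds raising TNAP activity as a selectivity check on IAP activators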", "assay_type": "functional"}, "[7]": {"biological_target": "Intestinal-type alkaline phosphatase (Mus musculus, UniProt P24822)", "sequence (P24822 whole entry)": "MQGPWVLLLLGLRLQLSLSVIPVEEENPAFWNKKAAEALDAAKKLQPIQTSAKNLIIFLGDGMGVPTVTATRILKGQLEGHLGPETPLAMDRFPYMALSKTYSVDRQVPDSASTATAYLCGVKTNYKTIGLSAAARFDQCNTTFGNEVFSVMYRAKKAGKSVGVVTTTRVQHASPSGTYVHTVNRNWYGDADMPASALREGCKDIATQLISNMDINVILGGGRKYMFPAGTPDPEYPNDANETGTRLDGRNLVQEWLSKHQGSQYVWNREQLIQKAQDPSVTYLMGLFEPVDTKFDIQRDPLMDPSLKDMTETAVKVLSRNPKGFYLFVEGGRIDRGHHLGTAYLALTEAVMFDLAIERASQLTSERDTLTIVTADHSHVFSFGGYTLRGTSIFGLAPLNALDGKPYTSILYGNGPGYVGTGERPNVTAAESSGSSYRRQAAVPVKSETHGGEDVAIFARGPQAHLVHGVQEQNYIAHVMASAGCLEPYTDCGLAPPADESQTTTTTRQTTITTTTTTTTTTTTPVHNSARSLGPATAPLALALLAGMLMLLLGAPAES", "assay": "PubChem AID 488875", "assay_type": "functional"}, "[8]": {"biological_target": "T2, Intestinal-type alkaline phosphatase (Homo sapiens, UniProt P09923)", "T2 sequence (P09923 whole entry)": "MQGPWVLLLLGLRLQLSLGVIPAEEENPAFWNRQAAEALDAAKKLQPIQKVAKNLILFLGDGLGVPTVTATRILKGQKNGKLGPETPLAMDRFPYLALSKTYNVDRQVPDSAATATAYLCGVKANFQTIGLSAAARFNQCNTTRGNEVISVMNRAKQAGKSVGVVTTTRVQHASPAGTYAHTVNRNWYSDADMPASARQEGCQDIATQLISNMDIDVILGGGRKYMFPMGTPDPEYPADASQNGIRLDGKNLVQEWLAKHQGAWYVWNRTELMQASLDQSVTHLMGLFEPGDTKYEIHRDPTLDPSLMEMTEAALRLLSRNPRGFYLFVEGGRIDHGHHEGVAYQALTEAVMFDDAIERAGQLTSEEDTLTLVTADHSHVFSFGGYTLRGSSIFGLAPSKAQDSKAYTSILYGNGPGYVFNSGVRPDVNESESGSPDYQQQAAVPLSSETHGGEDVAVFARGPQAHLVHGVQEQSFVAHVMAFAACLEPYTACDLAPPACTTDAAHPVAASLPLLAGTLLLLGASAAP", "assay": "activation of human intestinal alkaline phosphatase – biochemical, luminescent, uHTS hits, set 2, dose response (AID 488817);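 further: potency of activators that raise enzyme activity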", "assay_type": "functional"}, "[9]": {"biological_target": "T2, Intestinal-type alkaline phosphatase", "assay": "human intestinal alkaline phosphatase activators, dose response, biochemical, luminescence, uHTS hits (AID 463120)", "assay_type": "functional"}, "[10]": {"biological_target": "Troponin, cardiac muscle (Homo sapiens, UniProt P19429+P45379+P63316)", "assay": "Fluorescence-based biochemical high throughput dose response assay for activators of the calcium sensitivity of cardiac Regulated Thin Filaments (RTF). [Related pubchem assays (depositor defined):AID493008, AID493018, AID504382, AID504383]", "assay_type": "protein-complex assay"}},
  "note": "Active and inactive are the calls of the source.",
  "data": [
    {"smiles": "COC(=O)c1cc2c(-c3ccccc3)c(C)c3ccccn3c-2c1C(=O)OC", "values": [
      {"measurement": "IC50", "setting": "[1]", "result": "2.58 µM (active)"},
      {"measurement": "IC50", "setting": "[2]", "result": "> 1.48 µM (active)"},
      {"measurement": "CC50", "setting": "[3]", "result": "27 µM (active)"},
      {"measurement": "IC50", "setting": "[4]", "result": "23.4 µM (active)"},
      {"measurement": "IC50", "setting": "[5]", "result": "1.31 µM (active)"}
    ]},
    {"smiles": "COc1ccc(OC)c(NC(=O)c2cc(-c3cc(C)ccc3O)n[nH]2)c1", "values": [
      {"measurement": "EC50", "setting": "[6]", "result": "18.5 µM (active)"},
      {"measurement": "EC50", "setting": "[7]", "result": "> 100 µM (inactive)"},
      {"measurement": "EC50", "setting": "[8]", "result": "20.8 µM (active)"},
      {"measurement": "EC50", "setting": "[9]", "result": "15.1 µM (active)"}
    ]},
    {"smiles": "COc1ccc(C(=O)Nn2cnc3scc(-c4cccs4)c3c2=O)c(O)c1", "values": [
      {"measurement": "EC50", "setting": "[10]", "result": "> 71.5 µM (inactive)"}
    ]}
  ]
}
